Structures are written as SMILES. Where two headings read alike, the source gives them in different places.

One series addresses T1, 12-LO (Homo sapiens, UniProt P18054).
T1 construct: endogenous in cells; host or cells: human PMNL preparations
T1 sequence (P18054 1-663): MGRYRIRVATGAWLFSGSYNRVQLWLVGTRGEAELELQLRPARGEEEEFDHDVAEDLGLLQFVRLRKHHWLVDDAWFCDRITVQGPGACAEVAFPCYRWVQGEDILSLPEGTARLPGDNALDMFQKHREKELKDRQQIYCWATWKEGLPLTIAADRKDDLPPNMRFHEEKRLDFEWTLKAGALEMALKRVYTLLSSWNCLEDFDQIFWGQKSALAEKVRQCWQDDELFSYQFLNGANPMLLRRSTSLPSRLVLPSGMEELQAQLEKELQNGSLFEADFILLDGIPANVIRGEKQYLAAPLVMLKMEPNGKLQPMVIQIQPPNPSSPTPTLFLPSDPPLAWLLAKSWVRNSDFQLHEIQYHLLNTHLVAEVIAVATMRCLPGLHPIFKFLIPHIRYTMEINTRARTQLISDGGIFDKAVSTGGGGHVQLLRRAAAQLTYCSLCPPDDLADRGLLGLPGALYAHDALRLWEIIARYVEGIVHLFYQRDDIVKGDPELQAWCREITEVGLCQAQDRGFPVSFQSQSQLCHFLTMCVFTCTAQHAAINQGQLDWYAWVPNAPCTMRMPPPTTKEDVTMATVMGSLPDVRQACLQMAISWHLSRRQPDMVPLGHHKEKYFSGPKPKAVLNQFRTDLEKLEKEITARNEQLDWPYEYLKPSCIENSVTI
The series can be described thus: 12-LO product formation in intact human PMNL. The class given is cell-based. To be noted: for IC50: PMNL, 2.5 μM A23187 plus 20 μM AA, read-out: LTC4; for effect on 12-LO activity: at 10 μM.

The subject of the next series is human PMNLs. Put plainly: Lactate dehydrogenase release (LDH assay) in PMNL. Format: cell-based. The procedure: After treatment of PMNL, supernatants were centrifuged (600g × 5 min, 4 °C), and 100 μL of supernatant were mixed with 200 μL LDH reaction buffer (75 mM Tris/HCl, pH 7.4, 0.3 mM NADH, 1.5 mM Na-pyruvate) in a 96-well plate. The decrease of NADH was measured immediately by absorbance at 340 nm in a kinetic mode (every 7 s for 20 min; Multiskan Spectrum). As a positive control for maximal LDH release, cells treated with 1 % Triton X-100 were included in each experiment, while untreated cells and vehicle (DMSO) served as negative controls.

Series [1] addresses T2, 5-LO (Homo sapiens, UniProt P09917).
T2 sequence (P09917 1-674): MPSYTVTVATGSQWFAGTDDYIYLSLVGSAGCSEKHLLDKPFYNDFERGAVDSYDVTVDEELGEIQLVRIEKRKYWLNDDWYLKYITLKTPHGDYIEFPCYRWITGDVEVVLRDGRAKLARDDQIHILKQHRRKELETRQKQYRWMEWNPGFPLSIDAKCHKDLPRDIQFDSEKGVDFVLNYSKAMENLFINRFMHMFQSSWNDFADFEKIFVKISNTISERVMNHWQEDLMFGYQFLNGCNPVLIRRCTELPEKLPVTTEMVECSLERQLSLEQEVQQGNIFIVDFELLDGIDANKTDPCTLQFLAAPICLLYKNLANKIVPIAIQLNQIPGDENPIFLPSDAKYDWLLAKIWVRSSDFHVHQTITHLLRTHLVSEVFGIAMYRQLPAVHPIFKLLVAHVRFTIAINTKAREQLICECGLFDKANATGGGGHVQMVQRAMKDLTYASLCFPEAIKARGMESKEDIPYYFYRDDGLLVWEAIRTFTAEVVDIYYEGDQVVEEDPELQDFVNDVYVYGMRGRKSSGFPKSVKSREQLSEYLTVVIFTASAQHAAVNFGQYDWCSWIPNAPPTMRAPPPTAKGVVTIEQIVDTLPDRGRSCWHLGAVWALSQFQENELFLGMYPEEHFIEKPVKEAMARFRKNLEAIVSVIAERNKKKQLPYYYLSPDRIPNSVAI
The series can be described thus: cell-free 5-LO activity assay with purified human recombinant 5-LO. To be noted: for IC50: purified human recombinant 5-LO, 20 μM AA, read-out: Cell-free (IC50 of 5-LO activity); for 5-LO inhibition in the cell free assay: up to 10 μM. The class given is biochemical. Set-up: made in house. The procedure: 5-LO was expressed in E. coli B121 (DE3) transformed with pT3- 5LO plasmid, and purification of 5-LO was performed as described previously. Briefly, E. coli was lysed in 50 mM tri-ethanolamine/HCl, pH 8.0, 5 mM EDTA, […] soybean trypsin inhibitor, 1 mM phenylmethanesulfonyl fluoride, 1 mM dithiothreitol and 1 mg/mL lysozyme and then sonified (3 × 15 s). The homogenate was then centrifuged at 40,000g for 20 min at 4°C. 5-LO in the supernatant was partially purified by affinity chromatography on an ATP-agarose column (Sigma-Aldrich). Semi-purified 5-LO was diluted in PBS containing EDTA (1 mM) and ATP (1 mM) and immediately used for 5-LO activity assays. Samples were pre-incubated with the test compounds or vehicle (0.1 % DMSO) for 10 min at 4°C. Samples were pre-warmed for 30 s at 37°C, and 2 mM CaCl2 plus the indicated concentrations of AA were added to start 5-LO product formation. The reaction was stopped after 10 min by addition of one volume of ice-cold methanol, and the formed metabolites were analyzed by HPLC. 5- LO products include the all-trans isomers of LTB4 as well as 5-HPETE and its corresponding alcohol 5-HETE.

The target in series [2] is T2, 5-LO. Put plainly: 5-LO product formation in intact human PMNL (neutrophils). Format: cell-based. On the set-up: endogenous in cells; host or cells: human PMNL from peripheral blood of healthy volunteers. To be noted: intact human PMNL. The procedure:
PMNL and monocytes were isolated from human peripheral blood of adult healthy volunteers, with consent, obtained from the Institute of Transfusion Medi-cine, University Hospital Jena (Germany). PMNL were immediately isolated by dextran sedi-mentation, centrifugation on Nycoprep cushions, and hypotonic lysis of erythrocytes, as described. PMNL viability was analyzed by trypan blue exclusion with a Vi-cell counter (Beckmann Coulter GmbH, Krefeld). HEK-293 cells were grown in DMEM/High Glucose (4.5 g/L) medium supplemented with heat-inactivated fetal calf serum (FCS, 10 %, vv_1), 100 U/mLpenicillin, and 100 µg/mL streptomycin at 37 °C in a 5 % CO2 incubator. HEK-293 cells were stably transfected with 5-LO and FLAP as validated experimental cell-based model for studying the regulation of 5-LO [28]. None of the cell lines used in this study were authenticated.
Freshly isolated human PMNL (5 × 10^6) were resuspended in 1 mL PBS buffer containing 1 mg/mL glucose (PG buffer). […] After 10 min at 37 °C, the reaction was stopped with 1 mL of methanol for 10 min on ice and LO products formed and released in the supernatants were extracted and analyzed by HPLC. In detail, after centrifugation (800g, 10 min, room temperature) the samples were applied to C-18 solid-phase extraction columns (100 mg; IST, Mid Glamorgan, United Kingdom), preconditioned with 1 mL methanol and 1 mL water. The columns were washed with 1 mL water and 1 mL water/methanol (75/25, vol/vol) and 5-LO metabolites were eluted with 300 μL methanol. The extract was then diluted with 120 μL water, and 100 μL diluted extract were analyzed by HPLC using a C-18 Radial-Pak column (Waters) eluted with methanol/water/acetic acid 75/25/0.1 (vol/vol/vol) at a flow rate of 1.2 mL/min. Amounts of different metabolites were determined by peak area integration. 5-LO products analyzed include LTB4 and its two all-trans isomers, 5(S)-hydroxy-6-trans-8,11,14-cis-eicosatetraenoic acid (5-HETE), and 5(S)-hydroper-oxy-6-trans-8,11,14-cis-eicosatetraenoic acid (5-HpETE). 5-HETE and 5-HpETE coelute as one major peak, and the integration of this peak represented both eicosanoids.

Series [3] deals with 5-lipoxygenase (5-LO). On the set-up: method as in PMID 31523435. To be noted: read-out: IC50 in isolated human neutrophils; cited from earlier work.
The target of series [4] is 5-lipoxygenase (5-LO). On the set-up: method as in PMID 31523435. Particulars: read-out: IC50 in whole blood; cited from earlier work.
Series [5] relates to 5-LO. Set-up: method as in PMID 23871907. Particulars: cited from earlier work.
Another series has as its system mPGES-1. Set-up: method as in PMID 23871907. Particulars: cited from earlier work.
The mark [6] stands for this setting: […] A23187 plus 20 μM AA, 10 min, read-out: Cell-based A23187 + AA (IC50 of 5-LO product formation).

For the molecule `CCCC/C=C\CCCCCCCCCc1cccc(OC(C)=O)c1OC(C)=O` [AI, (Z)-1,2-diacetoxy-3-(pentadec-10′-enyl)-benzene], the IC50 is above 10000 nM on 12-LO; above 10000 nM at 5-LO [1]; above 10000 nM at 5-LO [2] ([…] A23187, 10 min, read-out: Cell-based A23187 (IC50 of 5-LO product formation)); 1500 ± 1400 nM at 5-LO [2] (setting [6]). In addition, on 12-LO, the “effect on 12-LO activity” value is on record as “no significant effect”. Moreover, the “cytotoxicity on PMNL (LDH levels in the supernatants)” value in the series on human PMNLs is listed as “comparable to those of untreated controls”. Moreover, the “5-LO inhibition in the cell free assay” value at 5-LO [1] was “No significant 5-LO inhibition”.

Consider `CCCCCCCCCCCCCCCc1cccc(OC(C)=O)c1OC(C)=O` [AS, 1,2-diacetoxy-3-pentadecylbenzene], for which the IC50 at 12-LO, at 5-LO [1] and on 5-LO [2] (setting [6]) was above 10000 nM in each case. The “effect on 12-LO activity” value at 12-LO is given as “no significant effect”. Besides, the “cytotoxicity on PMNL (LDH levels in the supernatants)” value in the series with human PMNLs is on record as “comparable to those of untreated controls”. The “5-LO inhibition in the cell free assay” value at 5-LO [1] is “No significant 5-LO inhibition”.

Turning to `O=C(/C=C/c1ccc(O)c(O)c1)OCCc1ccccc1` [CAPE, Caffeic acid phenethyl ester], the IC50 at 5-lipoxygenase (5-LO) [3] is 500 nM; on 5-lipoxygenase (5-LO) [4] it was 1800 nM.

Regarding `CCCCCCCCCCCC1=C(O)C(=O)C=C(O)C1=O` [embelin], the IC50 with 5-LO [5] was 60 nM; with mPGES-1, 200 nM.

Source of the values: article PMC12523804, “Evaluation of molecular mechanisms of (Z)-3-(pentadec-10′-enyl)-catechol (litreol) and synthetic derivatives as inhibitors of human leukotriene biosynthesis” (Redox Biology, 2025).
